Measurements as given in patent US20220257500A1, “USE OF A HYDRO-ALCOHOLIC EXTRACT OF EVENING PRIMROSE FOR HYDRATING SKIN AND INCREASING BARRIER FUNCTION” (L'OREAL, priority 2019, published 2022).

Experiments:
Assay type in all cases: cell-based
Settings in all cases: normal human epidermal keratinocytes, 24 h, normalised to GAPDH
CNFN (cornifelin) = test: RT-qPCR analysis of gene expression, CNFN transcript
Procedure: (§1) Normal, human epidermal keratinocytes were used to conduct the study. Normal, human epidermal keratinocytes were seeded in 48-well culture plates and cultured in culture medium for 3 days at 37° C. under 5% CO2 with renewal of the culture medium after the first 24 hours of culture. After incubation, the culture medium was replaced by test medium (supplemented with 1.5 mM CaCl2) containing or not containing (control) the compounds to be tested, and the cells were incubated for 24 hours. All conditions were performed with n=2. After treatment, the culture media were removed and the cells rinsed twice with PBS (w/o CaCl2, w/o MgCl2). Total RNAs were isolated using a magnetic bead extraction kit, following the manufacturer's instructions (MagMAX™-96 Total RNA Isolation Kit, Ambion). Quantification of RNAs and quality control thereof were analysed using Labchip GX (Perkin Elmer). Expression of the selected transcripts was analysed by two-step quantitative PCR. First, the cDNAs were retro-transcribed from the RNAs using the Quantitect® Reverse transcription kit (QIAGEN) following the manufacturer's instructions. The quantitative PCR experiments were performed using a LightCycler® 480 Real-Time PCR System in 384-well plate (Roche) following the incorporation technique of SYBR®Green (Roche) (Table 4). The results are expressed as fold change (Fc) as compared with the non-treated control, after normalising relative expressions in relation to expression of a housekeeping gene (GAPDH). The expression of a gene is considered to be stimulated when it is multiplied at least by 1.5.

[1] = system: LCE3D (late cornified envelope 3D); test: RT-qPCR analysis of gene expression, LCE3D transcript
Procedure: as §1

[2] = system: SPRR1A (small proline-rich protein 1A); test: RT-qPCR analysis of gene expression, SPRR1A transcript
Procedure: as §1

FLG2 (filaggrin 2) = test: RT-qPCR analysis of gene expression, FLG2 transcript
Procedure: as §1

| Molecule | CNFN Fold change vs Control (Fc) (CNFN (cornifelin); 0.004 mg/mL) | LCE3D Fold change vs Control (Fc) ([1]; 0.004 mg/mL) | SPRR1A Fold change vs Control (Fc) ([2]; 0.004 mg/mL) | FLG2 Fold change vs Control (Fc) (FLG2 (filaggrin 2); 0.004 mg/mL) | CNFN Fold change vs Control (Fc) (CNFN (cornifelin); 0.1 mg/mL) | LCE3D Fold change vs Control (Fc) ([1]; 0.1 mg/mL) | SPRR1A Fold change vs Control (Fc) ([2]; 0.1 mg/mL) | FLG2 Fold change vs Control (Fc) (FLG2 (filaggrin 2); 0.1 mg/mL) |
| --- | --- | --- | --- | --- | --- | --- | --- | --- |
| O=c1oc2c(O)c(O)cc3c(=O)oc4c(O)c(O)cc1c4c23 [Ellagic acid, ellagic acid] | 0.64 fold change | 0.51 fold change | 0.96 fold change | 1.22 fold change | – | – | – | – |
| O=c1c(O[C@@H]2O[C@H](CO)[C@H](O)[C@H](O)[C@H]2O)c(-c2ccc(O)c(O)c2)oc2cc(O)cc(O)c12 [Hyperoside, hyperoside] | – | – | – | – | 0.61 fold change | 0.61 fold change | 0.64 fold change | 0.5 fold change |
| O=c1c(O[C@@H]2O[C@H](CO)[C@@H](O)[C@H](O)[C@H]2O)c(-c2ccc(O)c(O)c2)oc2cc(O)cc(O)c12 [Isoquercitrin, isoquercitrin] | – | – | – | – | 0.54 fold change | 0.47 fold change | 0.57 fold change | 0.9 fold change |
| O=C(O)[C@H]1O[C@@H](Oc2cc(O)c3c(=O)cc(-c4ccc(O)c(O)c4)oc3c2)[C@H](O)[C@@H](O)[C@@H]1O [Luteoline-7-O-glucuronide, luteoline-7-O-glucuronide] | – | – | – | – | 0.42 fold change | 0.44 fold change | 0.41 fold change | 0.4 fold change |
| O=c1c(O)c(-c2ccc(O)c(O)c2)oc2cc(O)cc(O)c12 [Quercetin, quercetin] | – | – | – | – | 0.13 fold change | 0.2 fold change | 0.13 fold change | 0.12 fold change |
| oenothein B | 0.76 fold change | 0.87 fold change | 1.07 fold change | 1.36 fold change | – | – | – | – |
